Values after ≈ are worked out from the molar mass of the structure shown.

The subject of one data set is S. aureus ATCC25923. The data set is described as follows: In vitro antibacterial activity (MIC), agar plate dilution. The settings on record: Staphylococcus aureus, ATCC25923, read-out: minimum inhibitory concentration (MIC), S. aureus ATCC25923, 1000 cfu/spot. The format is cell-based, Staphylococcus aureus. On the procedure:
(§1) A minimum inhibitory concentration was measured as in vitro antibacterial activity. The minimum inhibitory concentration (MIC: μg/ml) was measured according to the standard method of Japanese Society of Chemotherapy, by an agar plate dilution method using 1000 cfu/spot as an inoculum amount and a susceptibility disk medium as a test medium.
(§2) In the tables, a unit of a numerical value of inhibitory activity is μg/ml. In addition, in the tables, S. aureus represents Staphylococcus aureus and E. faecalis represents Gram-positive group D streptococci (enterococci) that are resident in a normal bacterial flora of a human intestinal tract, and can be causative bacteria of endocarditis and the like after surgery.

Another data set deals with S. aureus ATCC700787. Described as above. Type of data set: cell-based, Staphylococcus aureus. The settings on record: Staphylococcus aureus, ATCC700787, read-out: minimum inhibitory concentration (MIC). On the procedure:
as §1, §2

A further data set has as its system S. aureus VRS1. The data set is described as above. The settings on record: Staphylococcus aureus, VRS1, read-out: minimum inhibitory concentration (MIC), S. aureus VRS1, 1000 cfu/spot. Type of data set: cell-based, Staphylococcus aureus. On the procedure:
as §1, §2

The test system of a further data set is E. faecalis SR1004. Described as above. Type of data set: cell-based. The settings on record: Enterococcus faecalis, SR1004, read-out: minimum inhibitory concentration (MIC), E. faecalis SR1004, 1000 cfu/spot. On the procedure:
as §1, §2

In a further data set the test system is E. faecalis SR7914. The description is as above. The settings on record: Enterococcus faecalis, SR7914, read-out: minimum inhibitory concentration (MIC), E. faecalis SR7914, 1000 cfu/spot. Type of data set: cell-based. As to the method:
as §1, §2

In a further data set the test system is E. faecium SR7940. The description is as above. The format is cell-based. The settings on record: Enterococcus faecium, SR7940, read-out: minimum inhibitory concentration (MIC), E. faecium SR7940, 1000 cfu/spot. On the procedure:
as §1, §2

The next data set has as its system E. faecium SRM1101. The description is as above. The settings on record: Enterococcus faecium, SRM1101, read-out: minimum inhibitory concentration (MIC). The format is cell-based. On the procedure:
as §1, §2

The next data set has as its system S. aureus SR3637. Described as above. Type of data set: cell-based. The settings on record: Staphylococcus aureus, SR3637, read-out: minimum inhibitory concentration (MIC), S. aureus SR3637, 1000 cfu/spot. On the procedure: as §1, §2
A short description of data set [1]: In vitro cytotoxicity test (resazurin). Type of data set: cell-based. The settings on record: African green monkey, Vero cells, 72 hours culture. As to the method: Vero cells (final concentration: 2.0×10 to the power of 4 cells/well) cultured in advance and each test substance were added to 96 wells, and cultured for 72 hours under conditions of 5% CO2 and 37° C. Thereafter, 10 μl/well of a 0.01% resazurin solution was added, and after mixing, the cells were cultured under conditions of 5% CO2 and 37° C. for 4 hours, and then a fluorescence value (Ex 531 nm/Em 590 nm) was measured using a microplate reader.
(Resazurin is reduced to fluorescent resorufin, in cell work by metabolically active cells.)

Data set [2] relates to 2% red blood cell suspension (defibrated sheep blood). Put plainly: In vitro hemolysis test. Type of data set: cell-based. The settings on record: sheep red blood cells, 24 hours incubation. As to the method:
Hemolysis rates of the compound A drug substance and the liposome formulation of Example 2 were evaluated by the following methods.
A 10 mM concentration solution of each test substance was prepared using a 5% sugar solution as a solvent, and 12 types of formulation solutions were prepared for each test substance up to 0.0049 mM by 2-fold serial dilution. Using 20% FBS-supplemented M-199 medium (With Earle's salts, sodium bicarbonate and 25 mM HEPES, supplement with 0.1 g/L L-glutamine) as a medium, a 2% red blood cell suspension (defibrated sheep blood) was prepared and mixed with a solvent or each test substance formulation solution (n=2). […] A mixed solution of the solvent or each test substance formulation solution and the red blood cell suspension or the medium was incubated for 24 hours, then the supernatant was collected, and an absorbance at 540 nm was measured. At the stage of completion of each incubation, an absorbance of the solvent and the red blood cell suspension, and an absorbance of the solvent and the medium were set to a reference of “hemolysis rate 0%”, and an absorbance of the 100% hemolysis solution was set to a reference of “100% hemolysis”, and a hemolysis rate by mixing and incubating each test substance formulation solution and the red blood cell suspension was calculated by the following calculation formula. […]

As to `CN[C@H](CC(C)C)C(=O)NC1C(=O)N[C@@H](CC(N)=O)C(=O)N[C@H]2C(=O)N[C@H]3C(=O)N[C@H](C(=O)N[C@@H](C(=O)O)c4cc(O)cc(O)c4-c4cc3ccc4O)[C@H](O[C@H]3C[C@](C)(N)[C@@H](O)[C@H](C)O3)c3ccc(c(Cl)c3)Oc3cc2cc(c3O[C@@H]2O[C@H](CO)[C@@H](O[C@@H]3O[C@H](CNCc4ccc(-c5ccc(Cl)cc5)s4)[C@H](O)[C@H](O)[C@H]3O)[C@H](O)[C@H]2O)Oc2ccc(cc2Cl)[C@H]1O` (stereo partly shown) [Compound A drug substance], the MIC in the data set with S. aureus ATCC25923 was 1 µg/mL (≈ 0.55 µM); in the data set with S. aureus ATCC700787, 2 µg/mL (≈ 1.1 µM); in the data set on S. aureus VRS1 it was 4 µg/mL (≈ 2.2 µM); with E. faecalis SR1004, 0.5 µg/mL (≈ 0.275 µM); with E. faecalis SR7914, 2 µg/mL (≈ 1.1 µM); in the data set on E. faecium SR7940, 2 µg/mL (≈ 1.1 µM). Moreover, the MIC was 2 µg/mL (≈ 1.1 µM) in the data set with E. faecium SRM1101 and 1 µg/mL (≈ 0.55 µM) with S. aureus SR3637. Also, in data set [1], the midpoint of cytotoxicity, the CC50 at 72 h, lay at 128 µg/mL (≈ 70.4 µM). In [2], this compound came in with a Hemolysis rate of 34%.

One may read the CC50 as the concentration that lowers cell viability or growth by half. The low end stands for greater toxicity to the cells, the high end for lower toxicity to the cells.

Values taken from US20230321251A1, “LIPOSOME FORMULATION CONTAINING ANTIBACTERIAL AGENT” (priority 2020, published 2023).
